Results on two compounds are retold here after patent US20220204654A1, “CYCLODEXTRIN SUPRAMOLECULAR SCAFFOLDS AND USES THEREOF” (Massachusetts Institute of Technology, priority 2019, published 2022).

A short description of experiment [1]: Isothermal titration calorimetry (ITC) glucose binding assay. The note with it: ITC binding isotherm, read-out: binding affinity (Kd). The protocol: Binding studies were then carried out using isothermal titration calorimetry (ITC) to measure thermodynamic properties during binding. ITC was chosen as the preferred method to confirm binding of glucose as this assay excludes the possibilities of any false positive data. The ITC based binding assay needed significant optimization with respect to macromolecule concentration, choice of buffer, ways of desalting, concentration of the glucose solution, etc.

The conditions of experiment [2]: unmodified cyclodextrin with adamantine (AD), comparison statement; cited from earlier work.

Take `OCC1O[C@@H]2O[C@@H]3C(CO)O[C@H](O[C@@H]4C5CSCc6ccc(cc6)-c6ccc(cc6)CSCC6O[C@H](O[C@@H]7C(CO)O[C@H](O[C@H]1C(O)C2O)C(O)C7O)C(O)C(O)[C@@H]6O[C@H]1OC(CO)[C@@H](O[C@H]2OC(CO)[C@@H](O[C@@H](O5)C(O)C4O)C(O)C2O)C(O)C1O)C(O)C3O` (some centres unmarked) [CDC1]: the Kd in experiment [1] was around 5 mM. In the case of cyclodextrin, the dissociation constant entry in experiment [2] was “micromolar range”.
